Results from publication PMC11046306, “METTL17 is an Fe-S cluster checkpoint for mitochondrial translation” (Molecular cell, 2024).

Biological target: T1, mS29 (Saccharomyces cerevisiae, UniProt Q01163)
T1 construct: gene RSM23; native subunit within the mitoribosomal small subunit purified from yeast mitochondria
Assay: cryo-EM structure of the SSU […] Å
Assay type: binding
Conditions: within the mitoribosomal SSU; nucleotide pocket; reassigned from GDP

SMILES: Nc1ncnc2c1ncn2[C@@H]1O[C@H](COP(=O)(O)OP(=O)(O)OP(=O)(O)O)[C@@H](O)[C@H]1O [adenosine triphosphate]
- cryo-EM structure of the SSU 2.3 Å: guanosine diphosphate (GDP) to adenosine triphosphate (ATP) in the nucleotide pocket of the protein mS29
